Experiment: mn = molality of the nth substance listed, in mol/kg
Settings: 350 kPa, Liquid, Extra sensitive DSC

C[C@H](N)C(=O)O [(S)-2-aminopropanoic acid] + O
apparent molar heat capacity [J/K/mol]
Settings | m1 = 0.0152 | m1 = 0.0299 | m1 = 0.05 | m1 = 0.08 | m1 = 0.1247 | m1 = 0.2493 | m1 = 0.5149 | m1 = 1.002
278.15 K | 107 | 137 | 101.3 | 106 | 107 | 113.3 | 122.6 | 118.5
283.15 K | 119 | 148 | 113.2 | 117.9 | 118.8 | 124.8 | 133.2 | 128.7
288.15 K | 131 | 156 | 123.3 | 127.8 | 128.9 | 134.4 | 142 | 137.2
293.15 K | 143 | 163 | 131.5 | 136 | 137.4 | 142.4 | 149.5 | 144.3
298.15 K | 152 | 170 | 138.2 | 142.8 | 144.2 | 149.1 | 155.6 | 150.2
303.15 K | 158 | 174 | 143.9 | 148.7 | 150.3 | 154.9 | 160.8 | 155.5
308.15 K | 163 | 178 | 148.9 | 153.7 | 155.4 | 159.8 | 165.3 | 159.8
313.15 K | 169 | 182 | 153.6 | 158 | 159.9 | 164.1 | 169.3 | 163.8
318.15 K | 172 | 185 | 157.3 | 161.6 | 163.9 | 167.7 | 172.6 | 167.1
323.15 K | 175 | 188 | 160.9 | 164.9 | 167.3 | 170.9 | 175.5 | 170
328.15 K | 178 | 190 | 163.7 | 167.7 | 170.3 | 173.6 | 178 | 172.5
333.15 K | 181 | 192 | 166.4 | 170.2 | 173 | 176.1 | 180.3 | 174.8
338.15 K | 184 | 194 | 168.8 | 172.4 | 175.4 | 178.3 | 182.3 | 176.9
343.15 K | 187 | 196 | 170.7 | 174.2 | 177.3 | 180.1 | 183.9 | 178.6
348.15 K | 188 | 197 | 172.4 | 175.9 | 178.9 | 181.7 | 185.3 | 180.1
353.15 K | 190 | 198 | 174 | 177.4 | 180.5 | 183.1 | 186.6 | 181.4
358.15 K | 191 | 199 | 175.2 | 178.5 | 181.6 | 184.3 | 187.6 | 182.5
363.15 K | 192 | 199 | 176.1 | 179.4 | 182.5 | 185.1 | 188.4 | 183.5
368.15 K | 192 | 200 | 176.6 | 180.1 | 183.3 | 185.8 | 189 | 184.2
373.15 K | 192 | 200 | 177.1 | 180.5 | 183.7 | 186.2 | 189.4 | 184.8
378.15 K | 192 | 200 | 177.2 | 180.6 | 183.8 | 186.4 | 189.5 | 185.1
383.15 K | 192 | 200 | 177.1 | 180.7 | 183.9 | 186.4 | 189.6 | 185.4
388.15 K | 192 | 199 | 176.8 | 180.3 | 183.6 | 186.2 | 189.4 | 185.5
393.15 K | 190 | 200 | 176.6 | 179.8 | 183.1 | 185.8 | 189.2 | 185.5

— the NIST ThermoML archive (doi:10.1016/j.jct.2005.10.007)
